Data on three substances can be found in patent publication US20160074420A1, “ORAL B12 THERAPY” (Emisphere Technologies, Inc., priority 2010, published 2016).

The nature of series [1]: Vitamin B12 absorption after dosing Sprague-Dawley rats (plasma vitamin B12 by RIA). In kind it is in vivo. The conditions noted are these: for AUC / Cmax / Tmax: male Sprague-Dawley rats, mean, N = 5. The protocol:
(1) 8.8 mg of vitamin B12, 35 mg of SNAC were weighed, thoroughly mixed and made into a tablet for dosing in rats; (2) 8.8 mg of vitamin B12, 35 mg of SNAC and 5 mg of capmul PG-8 (propylene glycol monocaprylate) were weighed, thoroughly mixed and made into a tablet; (3) 8.8 mg of vitamin B12, 35 mg of SNAC and 0.9 mg of povidone were weighed, thoroughly mixed and made into a tablet. Each of the […] processes was repeated to produce more tablets.
Male Sprague-Dawley rats (325-350 g) were dosed with vitamin B12 intravenously (0.5 mg/kg) alone, or orally with the tablets made in Example 4 at a dose of 50 mg/kg, vitamin B12 alone or in combination with SNAC at 200 mg/kg. Blood samples were collected at 0, 3, 10, 20, 30, 60, 120, 240 and 360 minutes post dosing. Plasma samples were analyzed for vitamin B12 by RIA. The model independent pharmacokinetic (PK) metrics obtained following administration of the vitamin B12/SNAC combination were compared to those obtained following administration of vitamin B12 alone.

The test system of series [2] is homocysteine (HC). Briefly: Open label randomized study: plasma HC levels. In kind it is in vivo, human. The conditions noted are these: for mean (SD) percent change in HC levels: plasma. As to the method:
(§1) This was an open-label, randomized 60-day study, with a 30-day extension, conducted in B12 deficient subjects. Subjects were assigned to a treatment according to a randomization schedule prepared by a statistician at the start of the study. The randomization scheme was stratified such that a balanced number of males and females were assigned to each treatment group. Subjects were randomized to receive either a 1000 μg oral tablet, administered once daily for 90 days or 1000 μg cyanocobalamin, administered IM on Days 1, 3, 7, 10, 14, 21, 30, 60 and 90.
(§2) A single tablet was self-administered in the fasted state and at least one hour prior to the morning meal with 50 mL water. IM study drug administration was performed by study personnel, in the research clinic, in the morning, in the fasted state and at least 1 hour prior to the morning meal on study Days 1, 3, 7, 10, 14, 21, 30, 60 and 90. For subjects assigned to receive tablets, treatment compliance was based on subject diary entries. Blood samples for pharmacodynamic assessments (efficacy variables) were collected from all subjects at baseline prior to dosing (Day 1), and on Days 15, 31, 61 and 91. Sample collection was carried out approximately 24 hours after the last dose administration, prior to that day's dose administration, and in the fasting state.
(§3) Serum cobalamin (B12) levels were determined by a validated microparticle enzyme immunoassay (MEIA) detection method with a calibration range of 100-2000 pg/mL. Sample dilution procedures were validated up to 4-fold dilution. Serum MMA levels were determined by a validated LC/MS/MS method with a calibration range of 5-200 ng/mL. Plasma HC levels were determined by a validated fluorescence polarization immunoassay (FIPA) detection method with a calibration range of 2.5-50 μmol/L; and plasma holotranscobalamin (active B12) levels were determined using a validated MEIA method, with a calibration range of 8-128 pmol/L. Sample dilution procedures were validated up to 32-fold dilution.
(§4) The primary efficacy variable was serum cobalamin levels on Day 61. The primary efficacy outcome compared the proportion of subjects in each treatment group whose cobalamin levels were normalized (≧350 pg/mL) on Day 61. The secondary efficacy variables were serum cobalamin levels on Day 91, serum MMA levels on Day 61 and Day 91 and, plasma total HC levels on Day 61 and Day 91.
(§5) The secondary efficacy outcomes were: comparison of the proportion of subjects in each treatment group whose cobalamin levels were normalized (≧350 pg/mL) on Day 91; comparison of the mean percent change from baseline in serum cobalamin levels among subjects in each treatment group on Day 61 and Day 91; comparison of the mean percent change from baseline in serum MMA levels among subjects in each treatment group on Day 61 and Day 91; comparison of the mean percent change from baseline in total plasma HC among subjects in each treatment group on Day 61 and Day 91; comparison of the mean first time to normalization of serum cobalamin (≧350 pg/mL) among subjects in each treatment group on Day 61 and Day 91. Exploratory efficacy variables and outcomes were: plasma holotranscobalamin levels on Day 61 and Day 91, measured by: comparison of the proportion of subjects in each treatment group whose holotranscobalamin levels were normalized (≧40 pmol/L) on Day 61 and Day 91; the relationship between cobalamin and holotranscobalamin levels on Day 61 and Day 91.
(§6) Change from baseline (CFB) is defined as (X−B). Percent change from baseline (PCFB) is defined as PCFB=100(X−B)/B, where B is the baseline (pre-dose Day 1) measurement and X is the measurement at Day 61 or Day 91, as required.
(§7) The proportion of subjects who achieved normalization of cobalamin levels (i.e., cobalamin ≧350 pg/mL) at Day 91 was to be analyzed using the same methodology as given above for the primary analysis (i.e., Day 61). […]

The nature of series [3]: Open label randomized study: serum cobalamin (B12) levels in subjects with mild vitamin B12 deficiency. It is filed as in vivo, human. The conditions noted are these: for Cobalamin Responder (%): number of subjects (%) with cobalamin >=350 pg/mL; for Cobalamin Responder (%) / Cobalamin Non-responder (%): ITT; for Cobalamin Non-responder (%): number of subjects (%); for mean (SD) percent change in cobalamin levels: serum. As to the method:
In this study, the efficacy and safety of the oral vitamin B12 formulation (1 mg) of the present invention and intramuscular (IM) cyanocobalamin (1 mg) were evaluated in subjects with mild vitamin B12 deficiency.
as §1, §2, §3, §4, §5
The analysis of the primary efficacy outcome compared the proportion of subjects in each treatment group whose cobalamin levels were normalized (i.e., cobalamin ≧350 pg/mL) on Day 61 Visit. The number and frequency of normalized subjects was calculated. […]

The nature of series [4]: Open label randomized study: plasma holotranscobalamin (active B12) levels. In kind it is in vivo, human. The conditions noted are these: for Holotranscobalamin Responder (%): number of subjects (%) with holotranscobalamin >=40 pmol/L; for Holotranscobalamin Responder (%) / Holotranscobalamin Non-responder (%): ITT; for Holotranscobalamin Non-responder (%): number of subjects (%). As to the method: as §1, §2, §3, §5
The proportion of subjects who achieved normalization of holotranscobalamin levels (≧40 pmol/L) at Day 61 and Day 91 were analyzed using the same methodology as given for the primary analysis. The relationship between cobalamin and holotranscobalamin levels at Day 61 and Day 91, and the PCFB to Day 61 and Day 91 were explored. The relationship was analyzed graphically.

Series [5] in a line: Open label randomized study: safety assessments (adverse events). In kind it is in vivo, human. The conditions noted are these: 90-day study. As to the method: Safety assessments consisted of monitoring adverse events (AEs), hematology, chemistry and urinalysis laboratory test results, concomitant medications, vital sign assessments, ECG and physical examination findings.
A resting 12-lead ECG was recorded at screening and at the End-of-Study visit prior to discharge from the study. The ECG parameters recorded included ventricular rate (bpm), PR interval (msec), QRS duration (msec), QT interval (msec), QTc interval (msec, Bazett's correction). A physical examination was performed at screening and at the End-of-Study visit prior to discharge from the study.
The safety population included all randomized subjects who received at least one administration of study product and who had at least one subsequent safety assessment. Subjects are included in this group based on the actual treatment received. All safety analyses were performed on the safety population.

The test system of series [6] is methylmalonic acid (MMA). The series is described as follows: Open label randomized study: serum MMA levels. In kind it is in vivo, human. The conditions noted are these: for mean (SD) percent change in MMA levels: serum. As to the method: as §1, §2, §3, §4, §5, §6, §7
For series [7] the following is noted: cited from earlier work.
The mark [8] stands for this setting: 50 mg/kg vitamin B12 PO (tablet).
Where [9] appears, read: Day 1 (baseline prior to dosing).

In the case of Vitamin B12, in series [1] (0.5 mg/kg IV), the AUC – broadly, concentration integrated over time – was 65.84 µg·min/mL; the Cmax – broadly, the highest concentration seen after dosing – is 2150 ng/mL; the Tmax (commonly the time from dosing to the highest level) turned out to be 4.4 min. Moreover, in series [1] (setting [8]), the AUC came to 28.72 µg·min/mL, the Cmax was determined as 140 ng/mL and the Tmax is on record as 52 min. In series [1] (50 mg/kg vitamin B12 PO versus 0.5 mg/kg IV, rats), the “Mean Bioavailability” value came to 0.42%.

On to cyanocobalamin [IM B12], for which the “Homocysteine, Mean” value in series [2] (setting [9]) is 13 µmol/L; in series [2] (Day 15) it was 10 µmol/L; in series [2] (Day 61), 11 µmol/L; in series [2] (Day 91), 12 µmol/L. For the same substance, the “mean (SD) percent change in HC levels” value in series [2] (Day 61, change from baseline) is given as −17.49 (24.099) percent; in series [2] (Day 91, change from baseline), −8.805 (28.5406) percent. Moreover, the “Total B12, Mean” value in series [3] (setting [9]) came to 369 pg/mL; in series [3] (Day 15) it was 2434 pg/mL; in series [3] (Day 61), 2258 pg/mL; in series [3] (Day 91), 2057 ± 935 pg/mL; in series [3] (Day 91, listed as IM Treatment Group), 2057 pg/mL. The “Cobalamin Responder (%)” value in series [3] (Day 15), in series [3] (Day 61) and in series [3] (Day 91) was 26 (100.0) % each time. Moreover, the “Cobalamin Non-responder (%)” value in series [3] (Day 15), in series [3] (Day 61) and in series [3] (Day 91) was 0 (0.0) % throughout. Besides, the “mean (SD) percent change in cobalamin levels” value was 714.6 (732.11) percent in series [3] (Day 61, change from baseline) and 608.9 (446.68) percent in series [3] (Day 91, change from baseline). Also, the “HTC, Mean” value in series [4] (setting [9]) is recorded as 34.32 pmol/L; in series [4] (Day 15), 899 pmol/L; in series [4] (Day 61), 739 pmol/L; in series [4] (Day 91), 877 pmol/L. Moreover, the “Holotranscobalamin Responder (%)” value in series [4] (Day 15), in series [4] (Day 61) and in series [4] (Day 91) was 26 (100.0) % throughout. The “Holotranscobalamin Non-responder (%)” value in series [4] (Day 15), in series [4] (Day 61) and in series [4] (Day 91) was 0 (0.0) % throughout. The “subjects reported at least one AE” value in series [5] amounted to 57.7%. Also, the “subjects reported serious adverse events (SAEs)” value in series [5] is 11.5%. Further, the “Subjects who discontinued because of an AE” value in series [5] (safety population) is on record as 0 (0)^ n (%). The “Subjects with AEs” value in series [5] (safety population) is listed as 15 (57.7) n (%). The “Subjects with SAEs” value in series [5] (safety population) is listed as 3 (11.5) n (%). Besides, the “Subjects with TEAEs” value in series [5] (safety population) was 15 (57.7) n (%). Besides, the “MMA, Mean” value in series [6] (setting [9]) came out at 232 nmol/L; in series [6] (Day 15), 128 nmol/L; in series [6] (Day 61) it was 148 nmol/L; in series [6] (Day 91) it was 149 nmol/L. Besides, the “mean (SD) percent change in MMA levels” value in series [6] (Day 61, change from baseline) was −28.17 (24.754) percent; in series [6] (Day 91, change from baseline) it was −26.58 (25.643) percent.

On to cyanocobalamin [Oral cyanocobalamin], for which the “B12 levels increased by a mean value” in series [7] (1000 μg/day oral, 1 week, in 17 of 20 elderly patients (Kaltenbach et al.)) was 0.23 µg/L. For the same substance, the “patients normalized (serum B12 levels)” value in series [7] (2.5 year study (Andres et al.)) is 95%. Besides, in series [7] (3 month studies (Andres et al.)), the “patients achieved normal serum B12 levels” value was 80-90%. For the same substance, the “patients with clinical improvements” value in series [7] (Andres et al.) is listed as 20-30%.
